# From patent publication US9375497B2, “[F-18]-labeled L-glutamic acid, [F-18]-labeled L-glutamine, derivatives thereof and use thereof and processes for their preparation” (BAYER SCHERING PHARMA AKTIENGESELLSCHAFT, priority 2006, dated 2016)
# Columns and labels:
# [1] = system: A549 (non-small-cell bronchial carcinoma) cells; assay: Tumor cell uptake in A549 cells; type: cell-based, human; conditions: 250 kBq/well, compared to [^18F]FDG
# Protocol: (§1) For the evaluation of the tumor cell uptake of [^18F]glutamic acid, cell uptake experiments were carried out in human A549 (non-small-cell bronchial carcinoma) and HT29 (colonic carcinoma) cells. The tumor cell uptake of the glutamic acid derivatives was compared to
# (§2) [^18F]FDG (gold standard for oncological PET investigations).
# FIG. 2: Comparison of the time-dependent tumor cell uptake of [^18F]-4-glutamic acid [20-35 μM] (on the left) and [F-18]FDG [2 μM] (on the right) in A549 cells. The cells were incubated with 250 kBq/well. For displacement experiments, L-glutamic acid (1 mM) or glucose (5 mM) was used (mean value±standard deviation, n=3).
# [2] = system: HT29 (colonic carcinoma) cells; assay: Tumor cell uptake in HT29 cells; type: cell-based, human; conditions: compared to [^18F]FDG
# Protocol: as §1, §2
# [3] = system: murine F9 teratocarcinoma model in NMRI nude mice; assay: Tumor enrichment and tissue distribution, F9 teratocarcinoma model; conditions: for Tumor/tissue quotient, Blood / Tumor/tissue quotient, Brain / Tumor/tissue quotient, Fat / Tumor/tissue quotient, Heart / Tumor/tissue quotient, Intestine / Tumor/tissue quotient, Kidney / Tumor/tissue quotient, Liver / Tumor/tissue quotient, Lung / Tumor/tissue quotient, Muscle / Tumor/tissue quotient, Ovary / Tumor/tissue quotient, Skin / Tumor/tissue quotient, Spleen / Tumor/tissue quotient, Stomach / Tumor/tissue quotient, Uterus: single i.v.; for Tissue uptake, Blood / Tissue uptake, Brain / Tissue uptake, Fat / Tissue uptake, Heart / Tissue uptake, Intestine / Tissue uptake, Kidney / Tissue uptake, Liver / Tissue uptake, Lung / Tissue uptake, Muscle / Tissue uptake, Ovary / Tissue uptake, Skin / Tissue uptake, Spleen / Tissue uptake, Stomach / Tissue uptake, Tumor / Tissue uptake, Uterus: single i.v. 370 kBq
# Protocol: For the evaluation of the tumor enrichment and the tissue distribution in experimental animals, [^18F]-4-glutamic acid was tested in a murine F9 teratocarcinoma model in NMRI nude mice and a murine B16F1 melanoma model in C57BI6 mice.
# For this, 1×10^6 cells (F9) or 5×10^5 cells (B16F1) respectively were suspended in 100 μl of phosphate-buffered physiological saline solution and inoculated subcutaneously into the right, rear flank of the corresponding experimental animal species (NMRI for F9 and 057-BI6 for B16F1) (Berndorff et al. Clin. Cancer Res. 2005, 11, 2005). […] [^18F]-4-Glutamic acid (370 kBq, in 100 μl of physiological saline solution) was administered intravenously to the tail vein. […]
compound,measurement,setting,value
"NC(CC([18F])C(=O)O)C(=O)O (stereo not shown) [[^18F]4-glutamic acid, 4-[F-18]fluoroglutamic acid]",tumor cell uptake,[1],surprisingly high uptake
same,tumor cell uptake,[2],surprisingly high uptake
same,"Tumor/tissue quotient, Blood",[3]; 0.25 h (times as Table 1),1.14
same,"Tumor/tissue quotient, Brain",[3]; 0.25 h (times as Table 1),5.6
same,"Tumor/tissue quotient, Fat",[3]; 0.25 h (times as Table 1),5.85
same,"Tumor/tissue quotient, Heart",[3]; 0.25 h (times as Table 1),1.01
same,"Tumor/tissue quotient, Intestine",[3]; 0.25 h (times as Table 1),1.26
same,"Tumor/tissue quotient, Kidney",[3]; 0.25 h (times as Table 1),0.4
same,"Tumor/tissue quotient, Liver",[3]; 0.25 h (times as Table 1),0.86
same,"Tumor/tissue quotient, Lung",[3]; 0.25 h (times as Table 1),0.57
same,"Tumor/tissue quotient, Muscle",[3]; 0.25 h (times as Table 1),1.67
same,"Tumor/tissue quotient, Ovary",[3]; 0.25 h (times as Table 1),2.43
same,"Tumor/tissue quotient, Skin",[3]; 0.25 h (times as Table 1),1.25
same,"Tumor/tissue quotient, Spleen",[3]; 0.25 h (times as Table 1),1.12
same,"Tumor/tissue quotient, Stomach",[3]; 0.25 h (times as Table 1),1.12
same,"Tumor/tissue quotient, Uterus",[3]; 0.25 h (times as Table 1),1.18
same,"Tissue uptake, Blood",[3]; 0.25 h,2.51 % dose/g
same,"Tissue uptake, Brain",[3]; 0.25 h,0.52 % dose/g
same,"Tissue uptake, Fat",[3]; 0.25 h,0.85 % dose/g
same,"Tissue uptake, Heart",[3]; 0.25 h,2.86 % dose/g
same,"Tissue uptake, Intestine",[3]; 0.25 h,2.28 % dose/g
same,"Tissue uptake, Kidney",[3]; 0.25 h,7.24 % dose/g
same,"Tissue uptake, Liver",[3]; 0.25 h,3.37 % dose/g
same,"Tissue uptake, Lung",[3]; 0.25 h,5.08 % dose/g
same,"Tissue uptake, Muscle",[3]; 0.25 h,1.72 % dose/g
same,"Tissue uptake, Ovary",[3]; 0.25 h,1.34 % dose/g
same,"Tissue uptake, Skin",[3]; 0.25 h,2.28 % dose/g
same,"Tissue uptake, Spleen",[3]; 0.25 h,2.56 % dose/g
same,"Tissue uptake, Stomach",[3]; 0.25 h,2.56 % dose/g
same,"Tissue uptake, Tumor",[3]; 0.25 h,2.90 % dose/g
same,"Tissue uptake, Uterus",[3]; 0.25 h,2.54 % dose/g
same,"Tumor/tissue quotient, Blood",[3]; 1.0 h (times as Table 1),3.46
same,"Tumor/tissue quotient, Brain",[3]; 1.0 h (times as Table 1),4.2
same,"Tumor/tissue quotient, Fat",[3]; 1.0 h (times as Table 1),7.37
same,"Tumor/tissue quotient, Heart",[3]; 1.0 h (times as Table 1),2.73
same,"Tumor/tissue quotient, Intestine",[3]; 1.0 h (times as Table 1),0.97
same,"Tumor/tissue quotient, Kidney",[3]; 1.0 h (times as Table 1),1.38
same,"Tumor/tissue quotient, Liver",[3]; 1.0 h (times as Table 1),3.48
same,"Tumor/tissue quotient, Lung",[3]; 1.0 h (times as Table 1),1.34
same,"Tumor/tissue quotient, Muscle",[3]; 1.0 h (times as Table 1),2.51
same,"Tumor/tissue quotient, Ovary",[3]; 1.0 h (times as Table 1),5.05
same,"Tumor/tissue quotient, Skin",[3]; 1.0 h (times as Table 1),3.4
same,"Tumor/tissue quotient, Spleen",[3]; 1.0 h (times as Table 1),3.22
same,"Tumor/tissue quotient, Stomach",[3]; 1.0 h (times as Table 1),2.45
same,"Tumor/tissue quotient, Uterus",[3]; 1.0 h (times as Table 1),2.59
same,"Tissue uptake, Blood",[3]; 1.0 h,0.51 % dose/g
same,"Tissue uptake, Brain",[3]; 1.0 h,0.43 % dose/g
same,"Tissue uptake, Fat",[3]; 1.0 h,0.26 % dose/g
same,"Tissue uptake, Heart",[3]; 1.0 h,0.64 % dose/g
same,"Tissue uptake, Intestine",[3]; 1.0 h,1.83 % dose/g
same,"Tissue uptake, Kidney",[3]; 1.0 h,1.30 % dose/g
same,"Tissue uptake, Liver",[3]; 1.0 h,0.50 % dose/g
same,"Tissue uptake, Lung",[3]; 1.0 h,1.32 % dose/g
same,"Tissue uptake, Muscle",[3]; 1.0 h,0.70 % dose/g
same,"Tissue uptake, Ovary",[3]; 1.0 h,0.41 % dose/g
same,"Tissue uptake, Skin",[3]; 1.0 h,0.53 % dose/g
same,"Tissue uptake, Spleen",[3]; 1.0 h,0.54 % dose/g
same,"Tissue uptake, Stomach",[3]; 1.0 h,1.26 % dose/g
same,"Tissue uptake, Tumor",[3]; 1.0 h,1.75 % dose/g
same,"Tissue uptake, Uterus",[3]; 1.0 h,0.72 % dose/g
same,"Tumor/tissue quotient, Blood",[3]; 2.0 h (times as Table 1),9.06
same,"Tumor/tissue quotient, Brain",[3]; 2.0 h (times as Table 1),7.06
same,"Tumor/tissue quotient, Fat",[3]; 2.0 h (times as Table 1),23.67
same,"Tumor/tissue quotient, Heart",[3]; 2.0 h (times as Table 1),9.22
same,"Tumor/tissue quotient, Intestine",[3]; 2.0 h (times as Table 1),1.54
same,"Tumor/tissue quotient, Kidney",[3]; 2.0 h (times as Table 1),5.22
same,"Tumor/tissue quotient, Liver",[3]; 2.0 h (times as Table 1),9.23
same,"Tumor/tissue quotient, Lung",[3]; 2.0 h (times as Table 1),4.09
same,"Tumor/tissue quotient, Muscle",[3]; 2.0 h (times as Table 1),9.5
same,"Tumor/tissue quotient, Ovary",[3]; 2.0 h (times as Table 1),17.74
same,"Tumor/tissue quotient, Skin",[3]; 2.0 h (times as Table 1),9.4
same,"Tumor/tissue quotient, Spleen",[3]; 2.0 h (times as Table 1),18
same,"Tumor/tissue quotient, Stomach",[3]; 2.0 h (times as Table 1),6.85
same,"Tumor/tissue quotient, Uterus",[3]; 2.0 h (times as Table 1),6.96
same,"Tissue uptake, Blood",[3]; 2.0 h,0.21 % dose/g
same,"Tissue uptake, Brain",[3]; 2.0 h,0.27 % dose/g
same,"Tissue uptake, Fat",[3]; 2.0 h,0.09 % dose/g
same,"Tissue uptake, Heart",[3]; 2.0 h,0.21 % dose/g
same,"Tissue uptake, Intestine",[3]; 2.0 h,1.21 % dose/g
same,"Tissue uptake, Kidney",[3]; 2.0 h,0.37 % dose/g
same,"Tissue uptake, Liver",[3]; 2.0 h,0.20 % dose/g
same,"Tissue uptake, Lung",[3]; 2.0 h,0.48 % dose/g
same,"Tissue uptake, Muscle",[3]; 2.0 h,0.42 % dose/g
same,"Tissue uptake, Ovary",[3]; 2.0 h,0.12 % dose/g
same,"Tissue uptake, Skin",[3]; 2.0 h,0.21 % dose/g
same,"Tissue uptake, Spleen",[3]; 2.0 h,0.16 % dose/g
same,"Tissue uptake, Stomach",[3]; 2.0 h,0.33 % dose/g
same,"Tissue uptake, Tumor",[3]; 2.0 h,1.87 % dose/g
same,"Tissue uptake, Uterus",[3]; 2.0 h,0.32 % dose/g
same,tumor enrichment,"[3]; F9 teratocarcinoma, 1 h after intravenous administration",1.75 % ID/g
same,maximal tumor enrichment,"[3]; F9 teratocarcinoma, after intravenous injection (15 min)",2.90 % ID/g
